pKi: −log10 of the molar value. Calls of active or inactive are those of the source. The rule behind the calls is not given here.
tested on: Human immunodeficiency virus; experiment: Antiviral activity against HIV; assay type: functional, organism-based; settings: not given

| SMILES | Activity |
| --- | --- |
| Nc1nc(N)c2ncn(CC(CF)OCCP(=O)(O)O)c2n1 (stereo unspecified) | inactive |
| O=c1[nH]cnc2c1ncn2C[C@@H](CF)OCCP(=O)(O)O | inactive |
| Nc1nc2c(ncn2C[C@@H](CF)OCCP(=O)(O)O)c(=O)[nH]1 | inactive |
| O=c1[nH]cnc2c1ncn2CC(CF)OCCP(=O)(O)O (racemic) | inactive |
| Nc1nc2c(ncn2C[C@H](CF)OCCP(=O)(O)O)c(=O)[nH]1 | inactive |
| Nc1nc2c(ncn2CC(CF)OCCP(=O)(O)O)c(=O)[nH]1 (racemic) | inactive |
| Nc1ncnc2c1ncn2CC(CF)OCCP(=O)(O)O (stereo unspecified) | inactive |
| Nc1nc(NC2CC2)c2ncn(CC(CF)OCCP(=O)(O)O)c2n1 (stereo unspecified) | inactive |
| O=c1[nH]cnc2c1ncn2C[C@H](CF)OCCP(=O)(O)O | inactive |

tested on: not listed separately; experiment: Inhibition of recombinant Plasmodium falciparum HGXPRT expressed in Escherichia coli Sphi606 cells by spectrophotometric analysis; settings: not given

| SMILES | pKi |
| --- | --- |
| O=c1[nH]cnc2c1ncn2C[C@@H](CF)OCP(=O)(O)O | 4.89 |
| Nc1nc(O)c2ncn(C[C@@H](CF)OCP(=O)(O)O)c2n1 | ≤ 3.60 |
| O=c1[nH]cnc2c1ncn2C[C@@H](CF)OCCP(=O)(O)O | ≤ 3.52 |
| Nc1nc(O)c2ncn(C[C@H](CF)OCP(=O)(O)O)c2n1 | ≤ 3.52 |
| Nc1nc2c(ncn2C[C@@H](CF)OCCP(=O)(O)O)c(=O)[nH]1 | 5.92 |
| O=c1[nH]cnc2c1ncn2CC(CF)OCCP(=O)(O)O (racemic) | ≤ 3.70 |
| Nc1nc2c(ncn2C[C@H](CF)OCCP(=O)(O)O)c(=O)[nH]1 | 6.00 |
| Nc1nc2c(ncn2CC(CF)OCCP(=O)(O)O)c(=O)[nH]1 (racemic) | 6.00 |
| O=c1[nH]cnc2c1ncn2C[C@H](CF)OCP(=O)(O)O | 4.20 |
| O=c1[nH]cnc2c1ncn2C[C@H](CF)OCCP(=O)(O)O | ≤ 3.70 |

biological target: T1, Hypoxanthine-guanine phosphoribosyltransferase (Homo sapiens, UniProt P00492); experiment: Inhibition of recombinant human HGPRT expressed in Escherichia coli Sphi606 cells by spectrophotometric analysis; settings: not given
T1 sequence (P00492 whole entry): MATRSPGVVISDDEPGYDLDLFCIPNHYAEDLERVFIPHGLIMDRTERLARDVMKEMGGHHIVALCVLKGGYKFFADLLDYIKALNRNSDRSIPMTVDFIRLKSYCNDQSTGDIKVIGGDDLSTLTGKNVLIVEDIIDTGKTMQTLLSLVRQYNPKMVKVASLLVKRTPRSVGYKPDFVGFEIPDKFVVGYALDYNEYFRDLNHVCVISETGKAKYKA

| SMILES | pKi |
| --- | --- |
| O=c1[nH]cnc2c1ncn2C[C@@H](CF)OCP(=O)(O)O | ≤ 3.60 |
| Nc1nc(O)c2ncn(C[C@@H](CF)OCP(=O)(O)O)c2n1 | ≤ 3.60 |
| Nc1nc(O)c2ncn(C[C@H](CF)OCP(=O)(O)O)c2n1 | ≤ 3.52 |
| O=c1[nH]cnc2c1ncn2C[C@H](CF)OCP(=O)(O)O | ≤ 3.70 |

More lines, now with the values ahead:

| pKi | SMILES |
| --- | --- |
| 5.80 | O=c1[nH]cnc2c1ncn2C[C@@H](CF)OCCP(=O)(O)O |
| 7.00 | Nc1nc2c(ncn2C[C@@H](CF)OCCP(=O)(O)O)c(=O)[nH]1 |
| 5.27 | O=c1[nH]cnc2c1ncn2CC(CF)OCCP(=O)(O)O (racemic) |
| 5.33 | Nc1nc2c(ncn2C[C@H](CF)OCCP(=O)(O)O)c(=O)[nH]1 |
| 5.43 | Nc1nc2c(ncn2CC(CF)OCCP(=O)(O)O)c(=O)[nH]1 (racemic) |
| ≤ 3.70 | O=c1[nH]cnc2c1ncn2C[C@H](CF)OCCP(=O)(O)O |

tested on: Hepatitis C virus; experiment: Antiviral activity against HCV; assay type: functional, organism-based; settings: Hepacivirus hominis

| SMILES | Activity |
| --- | --- |
| Nc1nc(N)c2ncn(CC(CF)OCCP(=O)(O)O)c2n1 (stereo unspecified) | inactive |
| O=c1[nH]cnc2c1ncn2C[C@@H](CF)OCCP(=O)(O)O | inactive |
| Nc1nc2c(ncn2C[C@@H](CF)OCCP(=O)(O)O)c(=O)[nH]1 | inactive |
| O=c1[nH]cnc2c1ncn2CC(CF)OCCP(=O)(O)O (racemic) | inactive |
| Nc1nc2c(ncn2C[C@H](CF)OCCP(=O)(O)O)c(=O)[nH]1 | inactive |
| Nc1nc2c(ncn2CC(CF)OCCP(=O)(O)O)c(=O)[nH]1 (racemic) | inactive |
| Nc1ncnc2c1ncn2CC(CF)OCCP(=O)(O)O (stereo unspecified) | inactive |
| Nc1nc(NC2CC2)c2ncn(CC(CF)OCCP(=O)(O)O)c2n1 (stereo unspecified) | inactive |
| O=c1[nH]cnc2c1ncn2C[C@H](CF)OCCP(=O)(O)O | inactive |

tested on: not listed separately; experiment: Inhibition of recombinant Plasmodium vivax HGXPRT expressed in Escherichia coli by spectrophotometric analysis; settings: not given

| SMILES | pKi |
| --- | --- |
| O=c1[nH]cnc2c1ncn2C[C@@H](CF)OCP(=O)(O)O | ≤ 3.60 |
| Nc1nc(O)c2ncn(C[C@@H](CF)OCP(=O)(O)O)c2n1 | ≤ 3.60 |
| O=c1[nH]cnc2c1ncn2C[C@@H](CF)OCCP(=O)(O)O | ≤ 3.52 |
| Nc1nc(O)c2ncn(C[C@H](CF)OCP(=O)(O)O)c2n1 | ≤ 3.52 |
| Nc1nc2c(ncn2C[C@@H](CF)OCCP(=O)(O)O)c(=O)[nH]1 | 5.47 |
| O=c1[nH]cnc2c1ncn2CC(CF)OCCP(=O)(O)O (racemic) | ≤ 4.00 |
| Nc1nc2c(ncn2C[C@H](CF)OCCP(=O)(O)O)c(=O)[nH]1 | 4.54 |
| Nc1nc2c(ncn2CC(CF)OCCP(=O)(O)O)c(=O)[nH]1 (racemic) | 5.15 |
| O=c1[nH]cnc2c1ncn2C[C@H](CF)OCP(=O)(O)O | ≤ 3.70 |
| O=c1[nH]cnc2c1ncn2C[C@H](CF)OCCP(=O)(O)O | ≤ 3.70 |

tested on: Bordetella pertussis; experiment: Effect on Bordetella pertussis adenylyl cyclase; settings: not given

| SMILES | Activity |
| --- | --- |
| Nc1nc(N)c2ncn(CC(CF)OCCP(=O)(O)O)c2n1 (stereo unspecified) | inactive |
| Nc1ncnc2c1ncn2CC(CF)OCCP(=O)(O)O (stereo unspecified) | inactive |
| Nc1nc(NC2CC2)c2ncn(CC(CF)OCCP(=O)(O)O)c2n1 (stereo unspecified) | inactive |

The next lines start with the values.

| Activity | SMILES |
| --- | --- |
| inactive | O=c1[nH]cnc2c1ncn2C[C@@H](CF)OCCP(=O)(O)O |
| inactive | Nc1nc2c(ncn2C[C@@H](CF)OCCP(=O)(O)O)c(=O)[nH]1 |
| inactive | O=c1[nH]cnc2c1ncn2CC(CF)OCCP(=O)(O)O (racemic) |
| inactive | Nc1nc2c(ncn2C[C@H](CF)OCCP(=O)(O)O)c(=O)[nH]1 |
| inactive | Nc1nc2c(ncn2CC(CF)OCCP(=O)(O)O)c(=O)[nH]1 (racemic) |
| inactive | O=c1[nH]cnc2c1ncn2C[C@H](CF)OCCP(=O)(O)O |

tested on: Maize streak virus; experiment: Antiviral activity against MSV; assay type: functional; settings: not given

| SMILES | Activity |
| --- | --- |
| Nc1nc(N)c2ncn(CC(CF)OCCP(=O)(O)O)c2n1 (stereo unspecified) | inactive |
| O=c1[nH]cnc2c1ncn2C[C@@H](CF)OCCP(=O)(O)O | inactive |
| Nc1nc2c(ncn2C[C@@H](CF)OCCP(=O)(O)O)c(=O)[nH]1 | inactive |
| O=c1[nH]cnc2c1ncn2CC(CF)OCCP(=O)(O)O (racemic) | inactive |
| Nc1nc2c(ncn2C[C@H](CF)OCCP(=O)(O)O)c(=O)[nH]1 | inactive |
| Nc1nc2c(ncn2CC(CF)OCCP(=O)(O)O)c(=O)[nH]1 (racemic) | inactive |
| Nc1ncnc2c1ncn2CC(CF)OCCP(=O)(O)O (stereo unspecified) | inactive |
| Nc1nc(NC2CC2)c2ncn(CC(CF)OCCP(=O)(O)O)c2n1 (stereo unspecified) | inactive |
| O=c1[nH]cnc2c1ncn2C[C@H](CF)OCCP(=O)(O)O | inactive |

Source: ChEMBL document CHEMBL2417370, “The effect of novel [3-fluoro-(2-phosphonoethoxy)propyl]purines on the inhibition of Plasmodium falciparum, Plasmodium vivax and human hypoxanthine-guanine-(xanthine) phosphoribosyltransferases” (Eur J Med Chem, 2013)
